Source: ChEMBL document CHEMBL4411318, “Discovery of a Series of 2'-α-Fluoro,2'-β-bromo-ribonucleosides and Their Phosphoramidate Prodrugs as Potent Pan-Genotypic Inhibitors of Hepatitis C Virus” (J Med Chem, 2019)

Columns and labels:
[1] = test system: cytochrome c oxidase subunit 2 DNA level; assay: Mitochondrial toxicity in human HepG2 cells assessed as inhibition of cytochrome c oxidase subunit 2 DNA level followed by medium plus drugs replenishment every 3 to 4 days for 14 days relative to control; format: cell-based
[2] = test system: cytochrome c oxidase subunit 2 DNA level; assay: Mitochondrial toxicity in human HepG2 cells assessed as inhibition of cytochrome c oxidase subunit 2 DNA level at 10 uM followed by medium plus drugs replenishment every 3 to 4 days for 14 days relative to control; format: cell-based
HepG2 [3] = assay: Mitochondrial toxicity in human HepG2 cells 10 uM followed by medium plus drugs replenishment every 3 to 4 days for 14 days relative to control; format: cell-based; settings: hepg2, 336 h
[4] = test system: nuclear ribosomal-DNA level; assay: in vitro; settings: human, HepG2 cells
[5] = test system: nuclear ribosomal-DNA level; assay: in vitro; settings: human, HepG2 cells; remark: listed apart in the source
[6] = Cytotoxicity against human HuH7 cells assessed reduction in cell viability after 3 to 5 days by MTT assay; format: cell-based, Huh-7
PBMC = assay: (§1) Cytotoxicity against human PBMC assessed reduction in cell viability after 5 days by MTT assay; format: cell-based; settings: pbmc, 120 h
CCRF-CEM = assay: (§2) Cytotoxicity against human CCRF-CEM assessed reduction in cell viability after 4 days by MTT assay; format: cell-based; settings: ccrf-cem, 96 h
[7] = target: RNA-directed RNA polymerase (Hepacivirus hominis) (UniProt O39930); settings: Hepatitis C virus subtype 1b
Description: Inhibition of NS5B polymerase in wild type HCV genotype 1b infected in human Huh7 replicon cells after 5 days by RT-PCR assay

[8] = Mitochondrial toxicity in human HepG2 cells assessed as reduction in cell viability after 14 days in presence of glucose supplemented media by ATP depletion assay; format: cell-based
[9] = Mitochondrial toxicity in human HepG2 cells assessed as reduction in cell viability after 3 days in presence of galactose supplemented media by ATP depletion assay; format: cell-based
[10] = Mitochondrial toxicity in human HepG2 cells assessed as reduction in cell viability after 3 days in presence of glucose supplemented media by ATP depletion assay; format: cell-based
HepG2 [11] = assay: Mitochondrial toxicity in human HepG2 cells assessed as lactic acid production at 50 uM followed by medium plus drugs replenishment every 3 to 4 days for 14 days relative to control; format: cell-based; settings: hepg2, 336 h
[12] = target: RNA-directed RNA polymerase (Hepacivirus hominis) (UniProt O39930); assay: Inhibition of NS5B polymerase in HCV genotype 1b/4a chimeric replicon infected in human HuH7 replicon cells after 5 days by RT-PCR analysis; format: cell-based
[13] = target: RNA-directed RNA polymerase (Hepacivirus hominis) (UniProt O39930); assay: Inhibition of NS5B polymerase in HCV genotype 2a infected in human HuH7 replicon cells after 5 days by RT-PCR analysis; format: cell-based; settings: Hepatitis C virus subtype 2a
[14] = as §1; format: cell-based; settings: PBMC
[15] = as §2; format: cell-based; settings: CCRF-CEM cells
[16] = target: RNA-directed RNA polymerase (Hepacivirus hominis) (UniProt O39930); assay: Inhibition of NS5B polymerase in HCV genotype 1b/5a chimeric replicon infected in human HuH7 replicon cells after 5 days by RT-PCR analysis; format: cell-based
[17] = Drug metabolism in human HuH7 cells assessed as Tmax for NTP formation at 10 uM after 2 to 48 hrs by LC-MS/MS analysis; format: ADME, cell-based; settings: huh-7, 10 µM
[18] = test system: cytochrome c oxidase subunit 2 DNA level; assay: Mitochondrial toxicity in human HepG2 cells assessed as inhibition of cytochrome c oxidase subunit 2 DNA level at 50 uM followed by medium plus drugs replenishment every 3 to 4 days for 14 days relative to control; format: cell-based
[19] = test system: nuclear ribosomal-DNA level; assay: Mitochondrial toxicity in human HepG2 cells assessed as inhibition of nuclear ribosomal-DNA level at 50 uM followed by medium plus drugs replenishment every 3 to 4 days for 14 days relative to control; format: cell-based
[20] = Mitochondrial toxicity in human HepG2 cells assessed as reduction in cell viability after 14 days in presence of galactose supplemented media by ATP depletion assay; format: cell-based
Bone marrow cell [21] = assay: Cytotoxicity against human bone marrow cells assessed as inhibition of burst forming unit-erythroid after 14 days by FACS analysis; format: cell-based; settings: 336 h
Bone marrow cell [22] = assay: Cytotoxicity against human bone marrow cells assessed as inhibition of colony-forming unit-granulocyte after 14 days by FACS analysis; format: cell-based; settings: 336 h
[23] = Cardiotoxicity against human embryonic stem cell-induced ventricular cardiomyocytes administered on day 7 and measured on day 10 after 30 mins incubation by CellTiter Glo assay; format: toxicity, cell-based, Cardiac muscle cell
[24] = Half life in human intestinal microsomes by LC/MS/MS analysis; format: ADME, Intestine, Microsome
[25] = Stability in human plasma assessed as compound remaining at 2 uM after 120 mins by LC/MS/MS analysis; format: ADME, cell-free; settings: read-out: Stability
[26] = Stability in simulated intestinal fluid after 24 hrs by LC/MS/MS analysis; format: ADME; settings: simulated gi fluid
[27] = test system: cytochrome c oxidase subunit 2 DNA level; assay: Mitochondrial toxicity in human HepG2 cells assessed as inhibition of cytochrome c oxidase subunit 2 DNA level at 12.5 uM followed by medium plus drugs replenishment every 3 to 4 days for 14 days relative to control; format: cell-based
[28] = test system: nuclear ribosomal-DNA level; assay: Mitochondrial toxicity in human HepG2 cells assessed as inhibition of nuclear ribosomal-DNA level at 12.5 uM followed by medium plus drugs replenishment every 3 to 4 days for 14 days relative to control; format: cell-based
[29] = test system: nuclear ribosomal-DNA level; assay: Mitochondrial toxicity in human HepG2 cells assessed as inhibition of nuclear ribosomal-DNA level at 25 uM followed by medium plus drugs replenishment every 3 to 4 days for 14 days relative to control; format: cell-based
HepG2 [30] = assay: Mitochondrial toxicity in human HepG2 cells assessed as lactic acid production at 12.5 uM followed by medium plus drugs replenishment every 3 to 4 days for 14 days relative to control; format: cell-based; settings: hepg2, 336 h
HepG2 [31] = assay: Mitochondrial toxicity in human HepG2 cells assessed as lactic acid production at 25 uM followed by medium plus drugs replenishment every 3 to 4 days for 14 days relative to control; format: cell-based; settings: hepg2, 336 h
in vitro [32] = settings: human, liver microsomes
Description: Half life in human liver microsomes in presence of NADPH regenerating system by LC/MS/MS analysis

in vitro [33] = settings: human, liver microsomes; remark: listed apart in the source
Description: Intrinsic clearance in human liver microsomes in presence of NADPH regenerating system by LC/MS/MS analysis

in vitro [34] = settings: human, liver microsomes; remark: listed apart in the source
Description: Stability in human liver microsomes assessed as compound remaining in absence of NADPH regenerating system after 60 mins by LC/MS/MS analysis

in vitro [35] = settings: human, liver microsomes; remark: listed apart in the source
Description: Intrinsic clearance in human liver measured from intrinsic clearance in human liver microsomes in presence of NADPH regenerating system by LC/MS/MS analysis

[36] = Drug uptake in Beagle dog liver at 10 mg/kg, po measured up to 4 hrs by LC-MS/MS analysis; settings: in vivo, BLD = below limit of detection
[37] = Prodrug activation in Beagle dog liver assessed as assessed as formation of triphosphate form parent nucleoside at 10 mg/kg, po measured at 4 hrs by LC-MS/MS analysis; settings: in vivo
[38] = Drug metabolism in human primary hepatocytes assessed as Tmax for NTP formation at 10 uM after 2 to 48 hrs by LC-MS/MS analysis; format: ADME, cell-based, Hepatocyte
[39] = Cytotoxicity in human HepaRG cells assessed as reduction in cell viability incubated for 14 days by CellTiter-Glo assay; format: cell-based
[40] = Nephrotoxicity in human HK2 cells after 72 hrs by Hoechst 33342/HCS live/dead green dye-based assay; format: toxicity, cell-based, HK-2
[41] = target: RNA-directed RNA polymerase (Hepacivirus hominis) (UniProt O39930); settings: genotype 1b/3a
Description: Inhibition of NS5B polymerase in HCV genotype 1b/3a chimeric replicon infected in human HuH7 replicon cells after 5 days by RT-PCR analysis

Sequence of RNA-directed RNA polymerase (Hepacivirus hominis) (O39930 1-591): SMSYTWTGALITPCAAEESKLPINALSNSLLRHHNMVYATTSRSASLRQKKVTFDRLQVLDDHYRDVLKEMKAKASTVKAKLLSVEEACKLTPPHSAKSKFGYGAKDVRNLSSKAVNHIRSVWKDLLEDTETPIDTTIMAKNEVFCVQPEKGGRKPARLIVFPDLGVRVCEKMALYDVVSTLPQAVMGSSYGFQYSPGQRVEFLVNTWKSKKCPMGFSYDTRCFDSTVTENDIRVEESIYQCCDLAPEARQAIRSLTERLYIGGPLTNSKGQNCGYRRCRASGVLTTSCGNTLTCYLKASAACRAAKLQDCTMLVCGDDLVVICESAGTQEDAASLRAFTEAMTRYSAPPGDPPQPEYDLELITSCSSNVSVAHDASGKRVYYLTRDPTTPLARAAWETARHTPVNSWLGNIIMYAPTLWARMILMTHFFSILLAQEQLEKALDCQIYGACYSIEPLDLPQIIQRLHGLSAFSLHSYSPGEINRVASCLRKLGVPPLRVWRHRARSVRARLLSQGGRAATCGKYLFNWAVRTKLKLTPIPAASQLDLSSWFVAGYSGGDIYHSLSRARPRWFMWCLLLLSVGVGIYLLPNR

Structure (SMILES)	IC50 at 14 days [1] [µM]	IC50 at 14 days [4] [µM]	CC50 [6] [µM]	EC90 [7] [µM]	Activity (HepG2 [11]) [%]	EC90 [12] [µM]	EC90 [13] [µM]	CC50 at 120 h [14] [µM]	CC50 at 96 h [15] [µM]	inhibition at 336 h, 50 µM [18] [%]	inhibition at 336 h, 50 µM [19] [%]	inhibition at 336 h, 12.5 µM [27] [%]	inhibition at 336 h, 12.5 µM [28] [%]	Activity (HepG2 [30]) [%]	further results
Nc1ccn([C@H]2CC[C@@H](CO)O2)c(=O)n1 [ZALCITABINE]	< 10	< 10													inhibition at 336 h, 10 µM [2]: 84%; Activity (HepG2 [3]): 200%; inhibition at 336 h, 10 µM [5]: 50%
C[C@@]1(O)[C@H](O)[C@@H](CO)O[C@H]1n1ccc(N)nc1=O			> 100	9.9											CC50 (PBMC): 60 µM; CC50 (CCRF-CEM): 22 µM
CC(C)OC(=O)[C@H](C)N[P@](=O)(OC[C@H]1O[C@@H](n2ccc(=O)[nH]c2=O)[C@@](F)(Br)[C@@H]1O)Oc1ccccc1 (single isomer, unassigned)		32	> 10	0.074 to 0.28	220	0.13	0.077	> 100	> 100	58	72	23	11	90	IC50 at 14 days [8]: > 100 µM; IC50 at 3 days [9]: > 100 µM; IC50 at 3 days [10]: > 100 µM; EC90 [16]: 0.083 µM; Tmax [17]: 12 h; IC50 at 14 days [20]: > 100 µM; IC50 (Bone marrow cell [21]): 72 µM; IC50 (Bone marrow cell [22]): 76 µM; IC50 at 3 days [23]: > 100 µM; half-life [24]: > 2.42 h; remaining at 2 h, 2 µM [25]: 90%; Stability [26]: Stable; inhibition at 336 h, 25 µM [29]: 39%; Activity (HepG2 [31]): 120%; half-life (in vitro [32]): 0.328 h; microsomal CLint (in vitro [33]): 70.2 µL/min/mg; remaining at 1 h (in vitro [34]): 3.7%; CLint scaled (in vitro [35]): 3.79 L/h/kg; Drug uptake [36]: Bld; Drug metabolism [37]: 20130 ng/mL
CC(C)OC(=O)[C@H](C)N[P@](=O)(OC[C@H]1O[C@@H](n2ccc(=O)[nH]c2=O)[C@](C)(F)[C@@H]1O)Oc1ccccc1 [SOFOSBUVIR]	> 50	45	> 100	0.15 to 0.9	180	0.15	0.13	> 100	> 100	44	58	6.7	3.1	79	Tmax [38]: 12 h; CC50 at 336 h [39]: 44 µM; CC50 at 72 h [40]: > 300 µM; CC50 at 0.5 h [23]: > 100 µM; EC90 [41]: 0.37 µM
